Measurements from EP1077981B1, “NOVEL CEPHALOSPORIN COMPOUNDS, PROCESSES FOR PREPARATION THEREOF AND ANTIMICROBIAL COMPOSITIONS CONTAINING THE SAME” (LG CHEMICAL LIMITED, priority 1998, dated 1999).
In brackets after ≈: the same amount, converted by molar mass. Where two headings read alike, the source gives them in different places.

Experiments:
S. aureus = experiment: MIC against standard strains (agar dilution); format: cell-based; conditions: Staphylococcus aureus, Mueller-Hinton agar, 10^7 cfu/mℓ, 20 hours at 37°C
Experimental: (§1) Test example 1: Measurement of Minimum Inhibitory Concentration (MIC)
(§2) Specifically, test compounds were diluted by 2-fold dilution method and dispersed in Mueller-Hinton agar medium and then, 2µℓ of test strains were inoculated at a concentration of 10^7 cfu(colony forming unit)/mℓ on the medium and incubated for 20 hours at 37°C.

E. coli = experiment: MIC against standard strains (agar dilution); format: cell-based; conditions: Escherichia coli, Mueller-Hinton agar, 10^7 cfu/mℓ, 20 hours at 37°C
Experimental: as §1, §2

S. pneumoniae = experiment: MIC against standard strains (agar dilution); format: cell-based; conditions: Streptococcus pneumoniae, Mueller-Hinton agar, 10^7 cfu/mℓ, 20 hours at 37°C
Experimental: as §1, §2

H. influenzae = experiment: MIC against standard strains (agar dilution); format: cell-based; conditions: Haemophilus influenzae
Experimental: as §1, §2

P. vulgaris = experiment: MIC against standard strains (agar dilution); format: cell-based; conditions: Proteus vulgaris, Mueller-Hinton agar, 10^7 cfu/mℓ, 20 hours at 37°C
Experimental: as §1, §2

[1] = Pharmacokinetic experiment (blood concentration by HPLC); format: in vivo, mice; conditions: mice, 20mg/kg; for AUC / half-life: male, mouse, blood
Experimental: Test example 2: Pharmacokinetic experiment
Male mice, each of which has a body weight of […] were used in the present pharmacokinetic experiment. Test compounds were formulated into 1% of solution and then, the solution was administered by oral route and by injection with a dose of 20mg/kg, respectively. At the fixed interval of time after administration, blood was gathered from the mice. Concentrations of test compounds in blood were measured by HPLC quantitative analysis and based on the results, pharmacokinetic parameters were calculated.

Row | Structure (SMILES) | MIC (S. aureus) [µg/mL] | MIC (E. coli) [µg/mL] | MIC (S. pneumoniae) [µg/mL] | MIC (H. influenzae; 20 h) [µg/mL] | MIC (P. vulgaris) [µg/mL] | AUC ([1]; Oral administration) [ng·h/mL] | half-life ([1]; Oral administration) [h] | maximum conc. ([1]; Oral administration) [µg/mL] | AUC ([1]; intravenous, Injection) [ng·h/mL] | half-life ([1]; intravenous, Injection) [h] | MIC (H. influenzae; H. influenzae, Mueller-Hinton agar, 10^7 cfu/mℓ, 20 hours at 37°C, read-out: MIC) [µg/mL] | half-life ([1]; intravenous injection) [h]
1 | CO/N=C(\C(=O)NC1C(=O)N2C(C(=O)O)=C(SCSc3nccc(N)n3)CSC12)c1csc(N)n1 (stereo not shown) [Compound No. 2, 7-[(Z)-2-(2-amino-thiazol-4-yl)-2-methoxyimino-acetylamino]-8-oxo-3-(4-amino-pyrimidin-2-ylsulfanylmethylsulfanyl)-5-t hia-1-aza-bicyclo[4,2,0]oct-2-ene-2-carboxylic acid] | 0.5 (≈ 0.901 µM) | 0.063 (≈ 0.114 µM) | 0.25 (≈ 0.451 µM) | 0.008 (≈ 0.0144 µM) | 0.031 (≈ 0.0559 µM) | – | – | – | – | – | – | –
2 | CO/N=C(\C(=O)NC1C(=O)N2C(C(=O)O)=C(SCSc3cc(N)nc(N)n3)CSC12)c1nc(N)sc1Cl (stereo not shown) [compound 8, 7-[(Z)-2-(2-amino-5-chloro-thiazol-4-yl)-2-methoxyimino-acetylamino]-3-(2,6-diamino-pyrimidin-4-ylsulfanylmethylsulfanyl)-8-oxo-5-thia-1-aza-bicyclo[4,2,0]oct-2-ene-2-carboxylic acid] | 0.25 (≈ 0.414 µM) | 0.25 (≈ 0.414 µM) | 0.13 (≈ 0.215 µM) | 0.031 (≈ 0.0513 µM) | 0.25 (≈ 0.414 µM) | – | – | – | – | – | – | –
3 | Nc1cc(SCSC2=C(C(=O)O)N3C(=O)C(NC(=O)/C(=N\O)c4csc(N)n4)C3SC2)nc(N)n1 (stereo not shown) [compound 6, 7-[(Z)-2-(2-amino-thiazol-4-yl)-2-hydroxyimino-acetylamino]-3-(2,6-diamino-pyrimidin-4-ylsulfanylmethylsulfanyl)-8-oxo-5-thia-1-aza-bicyclo[4,2,0]oct-2-ene-2-carboxylic acid] | 0.13 (≈ 0.234 µM) | 0.031 (≈ 0.0558 µM) | 0.5 (≈ 0.9 µM) | 0.5 (≈ 0.9 µM) | 0.031 (≈ 0.0558 µM) | – | – | – | – | – | – | –
4 | CO/N=C(\C(=O)NC1C(=O)N2C(C(=O)O)=C(SCc3cc(N)nc(N)n3)CSC12)c1csc(N)n1 (stereo not shown) [compound 20, 7-[(Z)-2-(2-amino-1,3-thiazol-4-yl)-2-methoxyimino-acetylamino]-3-(2,4-diaminopyrimidin-6-ylmethylsulfanyl)-8-oxo-5-t hia-1-aza-bicyclo[4,2,0]oct-2-ene-2-carboxylic acid] | 2 (≈ 3.72 µM) | 0.031 (≈ 0.0577 µM) | 2 (≈ 3.72 µM) | 0.031 (≈ 0.0577 µM) | 0.016 (≈ 0.0298 µM) | – | – | – | – | – | – | –
5 | CO/N=C(\C(=O)NC1C(=O)N2C(C(=O)O)=C(SCc3cnc(N)nc3N)CSC12)c1csc(N)n1 (stereo not shown) [compound 19, 7-[(Z)-2-(2-amino-1,3-thiazol-4-yl)-2-methoxyimino-acetylamino]-3-(2,4-diaminopyrimidin-5-ylmethylsulfanyl)-8-oxo-5-t hia-1-aza-bicyclo[4,2,0]oct-2-ene-2-carboxylic acid] | – | – | – | – | – | 6320 | 1.15 | 3.2 | – | – | – | –
6 | Nc1cc(SCSC2=C(C(=O)O)N3C(=O)C(NC(=O)/C(=N\O)c4nc(N)sc4Cl)C3SC2)nc(N)n1 (stereo not shown) [compound 7, 7-[(Z)-2-(2-amino-5-chloro-thiazol-4-yl)-2-hydroxyimino-acetylamino]-3-(2,6-diamino-pyrimidin-4-ylsulfanylmethylsulfanyl)-8-oxo-5-thia-1-aza-bicyclo[4,2,0]oct-2-ene-2-carboxylic acid] | 0.13 (≈ 0.22 µM) | 0.25 (≈ 0.424 µM) | 0.25 (≈ 0.424 µM) | 0.13 (≈ 0.22 µM) | 0.25 (≈ 0.424 µM) | 59900 | 2.8 | 13.8 | 107000 | 2.32 | – | –
7 | CO/N=C(\C(=O)NC1C(=O)N2C(C(=O)O)=C(SCSc3nc(N)cc(N)n3)CSC12)c1csc(N)n1 (stereo not shown) [compound 3, 7-[(Z)-2-(2-amino-thiazol-4-yl)-2-methoxyimino-acetylamino]-3-(4,6-diamino-pyrimidin-2-ylsulfanylmethylsulfanyl)-8-oxo-5-thia-1-aza-bicyclo[4,2,0]oct-2-ene-2-carboxylic acid] | 0.5 (≈ 0.878 µM) | 0.063 (≈ 0.111 µM) | 0.25 (≈ 0.439 µM) | 0.016 (≈ 0.0281 µM) | 0.016 (≈ 0.0281 µM) | – | – | – | – | – | – | –
8 | C=CC1=C(C(=O)O)N2C(=O)[C@@H](NC(=O)/C(=N\O)c3csc(N)n3)[C@H]2SC1 [Cefdinir, reference compound] | 0.031 (≈ 0.0784 µM) | 0.016 (≈ 0.0405 µM) | 4 (≈ 10.1 µM) | – | 0.031 (≈ 0.0784 µM) | 6380 | 1.23 | 2.9 | 50000 | 0.35 | 0.25 (≈ 0.632 µM) | 0.35
9 | CO/N=C(\C(=O)NC1C(=O)N2C(C(=O)O)=C(SCSc3cc(N)nc(N)n3)CSC12)c1csc(N)n1 (stereo not shown) [compound 4, 7-[(Z)-2-(2-amino-thiazol-4-yl)-2-methoxyimino-acetylamino]-3-(2,6-diamino-pyrimidin-4-ylsulfanylmethylsulfanyl)-8-oxo-5-thia-1-aza-bicyclo[4,2,0]oct-2-ene-2-carboxylic acid] | 0.25 (≈ 0.439 µM) | 0.063 (≈ 0.111 µM) | 0.13 (≈ 0.228 µM) | 0.008 (≈ 0.014 µM) | 0.016 (≈ 0.0281 µM) | – | – | – | – | – | – | –
10 | Nc1cc(N)nc(SCSC2=C(C(=O)O)N3C(=O)C(NC(=O)/C(=N\O)c4csc(N)n4)C3SC2)n1 (stereo not shown) [compound 5, 7-[(Z)-2-(2-amino-thiazol-4-yl)-2-hydroxyimino-acetylamino]-3-(4,6-diamino-pyrimidin-2-ylsulfanylmethylsulfanyl)-8-oxo-5-thia-1-aza-bicyclo[4,2,0]oct-2-ene-2-carboxylic acid] | 0.13 (≈ 0.234 µM) | 0.063 (≈ 0.113 µM) | 1 (≈ 1.8 µM) | 0.25 (≈ 0.45 µM) | 0.031 (≈ 0.0558 µM) | – | – | – | – | – | – | –
11 | CO/N=C(\C(=O)NC1C(=O)N2C(C(=O)O)=C(SCSc3ncccn3)CSC12)c1csc(N)n1 (stereo not shown) [compound 1, 7-[(Z)-2-(2-amino-thiazol-4-yl)-2-methoxyimino-acetylamino]-8-oxo-3-(pyrimidin-2-ylsulfanylmethylsulfanyl)-5-thia-1-aza-bicyclo[4,2,0]oct-2-ene-2-carboxylic acid] | 0.5 (≈ 0.927 µM) | 0.13 (≈ 0.241 µM) | 0.5 (≈ 0.927 µM) | 0.008 (≈ 0.0148 µM) | 0.063 (≈ 0.117 µM) | – | – | – | – | – | – | –
